Assay [1] has as its target AR / CBP ternary complex (Homo sapiens, UniProt P10275+Q92793). The experiment in a line: Ternary complex formation assay (sandwich ELISA, AR capture, CBP antibody detection) in VCaP cell lysates. The format is cell-based. The settings on record: treated 1.5 hours, rabbit CBP or p300 antibody detection, average, read-out: Average Ternary Complex. As for the experimental part:
Black MaxiSorp plates: coat with 50 μL of mouse 1/50 diluted AR antibody (Monoclonal Antibody (AR 441 from Thermo Fisher); diluted in phosphate buffered saline (PBS). Spin the liquid to the bottom of the wells, if necessary. Incubate overnight at 4° C. Next day, wash 3 times with 200 μL of TBST. Block with 200 μL of blocking buffer (5% BSA in TBST) at room temperature for 2 hours (BSA: A4503 or A2153 from Sigma). Wash plates 3 times with TBST. Plates are ready for lysates Preparation of dimerizer treated lysates
Culture cells in 96 wells at 50K VCaP cells/well for at least 3 days. Plate in 5% Omega charcoal stripped FBS in total volume of 200 uL. Treat with bifunctional for 1.5 hours by adding 1 μL of 200× stock in DMSO. Aspirate media/compound. Add and pipet-to-mix 70 μL of 1× AlphaLisa Lysis Buffer to each well (Perkin Elmer, AlphaLISA SureFire Ultra, diluted in water). Pipet up and down when adding lysis buffer to disrupt cells. Let lysis proceed for 30 min at 4° C.
Incubate for 1 hour at room temperature. Flick out the lysates. Wash 3 times with TBST. Add 75 μL of rabbit CBP or p300 antibody to each well (diluted 1:5000 in blocking buffer (5% BSA in TBST). CBP antibody: (D6C5) Rabbit mAb #7389; p300 antibody: (D8Z4E) Rabbit mAb #86377. Incubate overnight at 4° C. Wash 3 times with 300 uL TBST, each time on shaker for 5-10 min. Prepare goat anti-rabbit antibody conjugated to HRP (1/100K dilution in blocking buffer) Invitrogen Catalog number: 32260. Add 75 μL of HRP-conjugated goat anti-rabbit antibody. Incubate at room temperature for 1 hour. Flick out the HRP-antibody mixture. Wash 7-8 times with TBST, each time on shaker for 10 min. Later washes try to overflow the wells so that no residual HRP remains bound to the sides of the well. Prepare and add 75 uL/well of QuantaRed Enhance Chemifluorescent HRP Substrate solution. Immediately read fluorescence on BMG ClarioStar (ex: 570/em 585), and repeat the read in 5 minutes and 15 minutes.
A general note: In an ELISA, binding on a coated surface is turned into a signal by an enzyme label.

The subject of assay [2] is VCaP cells. The experiment in a line: VCaP growth inhibition assay (CTG). The settings on record: Homo sapiens, 216 h, 30 pM R1881, 9 days. In kind it is cell-based. As for the experimental part: VCaP cells (ATCC Cat #CRL-2876) are plated at 1×10^4 cells per well of a white plastic 96-well cluster plate (Thermo Scientific Nunc Cat #165306) in 100 uL phenol red-free DMEM (Gibco Cat #21063-029) media with 5% CSS (Omega Scientific Cat #FB-04). Cluster plates are returned to the incubator (37*C/5% CO2) for 72 hours prior to treatment. Just prior to treatment, 100 uL of phenol red-free DMEM/5% CSS and 60 pM R1881 (Sigma Cat #R0908-10 mg) was added to each well of the cluster plates (Final R1881 concentration=30 pM). Compounds (200X) were added to each well in a volume of 1 uL, with serial dilutions (1:5) from 20 uM to 2 pM (final concentrations in well are 100 nM to 10 fM). Cluster plates are returned to the incubator for 9 days.
After the 9-day treatment period, media was removed from the cluster plates by inversion and 100 uL room temperature CTG reagent (Promega Cat #G7573) is added to each well. The cluster plates are placed on a shaker and incubated at room temperature for 20 minutes. Following this shaking/incubation, cluster plates are read on a luminometer (BMG ClarioStar). IC50 values are obtained by graphing the RLU data vs. compound concentration with nonlinear regression 4-parameter logistic curves (GraphPad Prism).

Molecules are shown by their SMILES.

These results are taken from patent US20250136578A1 (Kolm Therapeutics Inc., priority 2023, published 2025).

Sequence of AR / CBP ternary complex (P10275 whole entry): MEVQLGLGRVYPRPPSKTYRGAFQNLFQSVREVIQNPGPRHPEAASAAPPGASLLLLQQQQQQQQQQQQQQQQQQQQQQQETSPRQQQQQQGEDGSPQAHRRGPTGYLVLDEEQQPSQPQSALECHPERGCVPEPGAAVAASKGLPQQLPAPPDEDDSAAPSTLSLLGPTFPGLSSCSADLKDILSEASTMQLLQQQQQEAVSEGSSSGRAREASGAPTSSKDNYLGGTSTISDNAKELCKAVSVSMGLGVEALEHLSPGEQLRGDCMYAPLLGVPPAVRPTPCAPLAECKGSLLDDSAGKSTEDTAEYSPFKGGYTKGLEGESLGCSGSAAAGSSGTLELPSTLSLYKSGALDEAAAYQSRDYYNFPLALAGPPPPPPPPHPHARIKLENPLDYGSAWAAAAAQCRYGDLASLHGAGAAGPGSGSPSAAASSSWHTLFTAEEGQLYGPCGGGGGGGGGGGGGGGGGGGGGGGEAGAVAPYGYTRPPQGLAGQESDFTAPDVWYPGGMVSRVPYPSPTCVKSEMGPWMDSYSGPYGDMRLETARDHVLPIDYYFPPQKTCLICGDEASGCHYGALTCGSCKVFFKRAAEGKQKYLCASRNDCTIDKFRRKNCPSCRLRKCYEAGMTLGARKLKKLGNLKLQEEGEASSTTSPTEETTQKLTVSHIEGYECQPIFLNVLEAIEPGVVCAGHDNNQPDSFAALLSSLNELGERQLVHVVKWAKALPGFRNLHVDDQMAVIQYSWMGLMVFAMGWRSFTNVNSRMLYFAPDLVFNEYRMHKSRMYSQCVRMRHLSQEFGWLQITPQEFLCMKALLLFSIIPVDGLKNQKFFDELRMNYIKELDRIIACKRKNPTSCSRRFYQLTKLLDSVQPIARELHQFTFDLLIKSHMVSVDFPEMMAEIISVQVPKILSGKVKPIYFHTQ
Sequence of AR / CBP ternary complex (Q92793 2-2442): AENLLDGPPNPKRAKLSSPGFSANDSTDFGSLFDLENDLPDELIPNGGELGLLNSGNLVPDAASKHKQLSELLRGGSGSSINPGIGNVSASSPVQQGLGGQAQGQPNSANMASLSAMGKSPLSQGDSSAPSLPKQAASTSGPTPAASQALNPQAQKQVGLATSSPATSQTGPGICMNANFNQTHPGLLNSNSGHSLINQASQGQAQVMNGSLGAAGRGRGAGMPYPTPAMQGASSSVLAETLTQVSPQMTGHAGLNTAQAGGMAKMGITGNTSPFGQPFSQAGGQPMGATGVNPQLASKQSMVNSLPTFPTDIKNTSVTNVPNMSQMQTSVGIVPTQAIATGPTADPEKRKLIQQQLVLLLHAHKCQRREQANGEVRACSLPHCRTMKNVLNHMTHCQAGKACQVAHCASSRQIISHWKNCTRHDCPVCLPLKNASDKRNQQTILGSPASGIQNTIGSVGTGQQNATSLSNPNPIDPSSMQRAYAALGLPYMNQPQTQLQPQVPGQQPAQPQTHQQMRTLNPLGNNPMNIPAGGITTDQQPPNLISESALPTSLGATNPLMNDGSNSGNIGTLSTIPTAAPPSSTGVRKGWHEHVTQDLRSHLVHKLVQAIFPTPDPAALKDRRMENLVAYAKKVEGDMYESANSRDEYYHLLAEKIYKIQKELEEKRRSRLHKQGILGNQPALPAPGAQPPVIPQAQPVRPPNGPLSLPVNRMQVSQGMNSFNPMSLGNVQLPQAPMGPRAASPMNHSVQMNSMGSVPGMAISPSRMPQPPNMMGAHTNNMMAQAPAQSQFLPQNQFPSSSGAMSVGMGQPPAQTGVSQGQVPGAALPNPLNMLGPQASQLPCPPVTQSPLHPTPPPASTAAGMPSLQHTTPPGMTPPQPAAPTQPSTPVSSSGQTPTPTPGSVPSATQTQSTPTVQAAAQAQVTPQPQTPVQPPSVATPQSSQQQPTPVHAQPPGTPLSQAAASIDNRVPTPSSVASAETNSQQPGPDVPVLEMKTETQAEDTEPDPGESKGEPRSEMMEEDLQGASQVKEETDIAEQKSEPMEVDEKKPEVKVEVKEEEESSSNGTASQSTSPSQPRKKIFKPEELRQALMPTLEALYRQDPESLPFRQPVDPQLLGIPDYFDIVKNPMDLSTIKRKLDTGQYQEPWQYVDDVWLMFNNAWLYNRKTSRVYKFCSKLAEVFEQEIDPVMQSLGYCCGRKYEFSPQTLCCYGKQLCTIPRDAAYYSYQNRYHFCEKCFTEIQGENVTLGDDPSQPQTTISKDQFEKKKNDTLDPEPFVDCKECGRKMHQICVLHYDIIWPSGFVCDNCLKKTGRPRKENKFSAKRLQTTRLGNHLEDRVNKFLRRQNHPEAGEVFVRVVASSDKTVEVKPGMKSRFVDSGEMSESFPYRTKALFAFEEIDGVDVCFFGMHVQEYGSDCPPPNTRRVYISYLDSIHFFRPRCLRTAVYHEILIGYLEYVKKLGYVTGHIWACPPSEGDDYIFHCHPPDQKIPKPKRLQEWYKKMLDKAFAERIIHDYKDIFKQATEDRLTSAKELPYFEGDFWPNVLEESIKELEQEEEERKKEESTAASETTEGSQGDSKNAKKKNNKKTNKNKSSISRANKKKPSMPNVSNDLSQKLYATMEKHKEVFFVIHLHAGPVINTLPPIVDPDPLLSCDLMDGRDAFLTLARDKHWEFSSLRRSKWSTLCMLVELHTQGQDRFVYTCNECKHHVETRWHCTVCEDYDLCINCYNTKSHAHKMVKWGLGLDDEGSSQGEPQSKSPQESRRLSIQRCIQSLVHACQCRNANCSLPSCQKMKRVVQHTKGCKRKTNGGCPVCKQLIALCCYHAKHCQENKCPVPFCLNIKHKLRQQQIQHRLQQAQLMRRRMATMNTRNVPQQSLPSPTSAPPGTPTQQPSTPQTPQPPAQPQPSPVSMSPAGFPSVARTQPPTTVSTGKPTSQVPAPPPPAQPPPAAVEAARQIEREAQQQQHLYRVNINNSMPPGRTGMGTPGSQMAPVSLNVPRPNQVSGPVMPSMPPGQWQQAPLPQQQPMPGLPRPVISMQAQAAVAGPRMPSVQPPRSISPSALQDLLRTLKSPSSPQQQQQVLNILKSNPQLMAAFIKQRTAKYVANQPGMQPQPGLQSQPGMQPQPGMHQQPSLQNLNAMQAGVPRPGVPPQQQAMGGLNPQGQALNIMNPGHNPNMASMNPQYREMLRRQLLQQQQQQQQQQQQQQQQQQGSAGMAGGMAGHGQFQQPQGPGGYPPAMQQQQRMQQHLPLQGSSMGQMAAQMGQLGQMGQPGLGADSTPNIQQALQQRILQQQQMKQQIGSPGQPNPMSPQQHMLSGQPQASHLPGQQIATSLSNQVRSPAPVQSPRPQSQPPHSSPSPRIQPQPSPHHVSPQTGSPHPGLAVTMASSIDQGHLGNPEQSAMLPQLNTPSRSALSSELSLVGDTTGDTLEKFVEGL

Take `CC(=O)N1CCc2c(c(-c3cccc4cc(-c5cnn(C)c5)ncc34)nn2C2CCN(CC3CCN(c4ccc(C(=O)N[C@H]5CC[C@H](Oc6ccc(C#N)c(Cl)c6)CC5)nn4)CC3)CC2)C1` [Compound 32, 6-[4-[[4-[5-acetyl-3-[3-(1-methylpyrazol-4-yl)-8-isoquinolyl]-6,7-dihydro-4H-pyrazolo[4,3-c]pyridin-1-yl]-1-piperidyl]methyl]-1-piperidyl]-N-[4-(3-chloro-4-cyano-phenoxy)cyclohexyl]pyridazine-3-carboxamide]: in assay [1], the EC50 was less than 1 nM. The IC50 (in general, the concentration that gives 50% inhibition) in assay [2] is not above 0.1 nM.

As for `CC(=O)N1CCc2c(c(N3CCCc4cc(-c5cnn(C)c5)c(C(F)F)cc43)nn2C2CCN([C@@H]3CCCN(c4ccc(C(=O)N[C@H]5CC[C@H](Oc6ccc(C#N)c(Cl)c6)CC5)nn4)C3)CC2)C1` [Compound 259, 6-[(3R)-3-[4-[5-acetyl-3-[7-(difluoromethyl)-6-(1-methylpyrazol-4-yl)-3,4-dihydro-2H-quinolin-1-yl]-6,7-dihydro-4H-pyrazolo[4,3-c]pyridin-1-yl]-1-piperidyl]-1-piperidyl]-N-[4-(3-chloro-4-cyano-phenoxy)cyclohexyl]pyridazine-3-carboxamide], the EC50 in assay [1] was 1 to 10 nM. Moreover, in assay [2], the IC50 was in the range of 1 to 100 nM.

Regarding `CC(=O)N1CCc2c(c(N3CCCc4cc(-c5cnn(C)c5)c(C(F)F)cc43)nn2[C@H]2CC[C@H](OC3CN(c4ccc(C(=O)N[C@H]5CC[C@H](Oc6ccc(C#N)c(Cl)c6)CC5)nn4)C3)CC2)C1` [Compound 224, 6-[3-[4-[5-acetyl-3-[7-(difluoromethyl)-6-(1-methylpyrazol-4-yl)-3,4-dihydro-2H-quinolin-1-yl]-6,7-dihydro-4H-pyrazolo[4,3-c]pyridin-1-yl]cyclohexoxy]azetidin-1-yl]-N-[4-(3-chloro-4-cyanophenoxy)cyclohexyl]pyridazine-3-carboxamide], the EC50 in assay [1] is less than 1 nM. This compound came in with an IC50 in assay [2] not above 0.1 nM.

With `CC(=O)N1CCc2c(c(-c3cccc4cc(-c5cnn(CCC6CCN(c7ccc(C(=O)N[C@H]8CC[C@H](Oc9ccc(C#N)c(Cl)c9)CC8)nn7)CC6)c5)ncc34)nn2[C@H]2CCOC2)C1` [Compound 85, 6-[4-[2-[4-[8-[5-acetyl-1-[(3S)-tetrahydrofuran-3-yl]-6,7-dihydro-4H-pyrazolo[4,3-c]pyridin-3-yl]-3-isoquinolyl]pyrazol-1-yl]ethyl]-1-piperidyl]-N-[4-(3-chloro-4-cyano-phenoxy)cyclohexyl] pyridazine-3-carboxamide], the EC50 in assay [1] is less than 1 nM. The IC50 in assay [2] is not above 0.1 nM.

As to `CC(=O)N1CCc2c(c(-c3cccc4cc(-c5cnn(C)c5)ncc34)nn2C2CN(CC3CCN(c4ccc(C(=O)N[C@H]5CC[C@H](Oc6ccc(C#N)c(Cl)c6)CC5)nn4)CC3)C2)C1` [Compound 4, 6-[4-[[3-[5-acetyl-3-[3-(1-methylpyrazol-4-yl)-8-isoquinolyl]-6,7-dihydro-4H-pyrazolo[4,3-c]pyridin-1-yl]azetidin-1-yl]methyl]-1-piperidyl]-N-[4-(3-chloro-4-cyano-phenoxy)cyclohexyl]pyridazine-3-carboxamide], the EC50 in assay [1] was less than 1 nM. For the same compound, the IC50 in assay [2] is not above 0.1 nM.

As for `CC(=O)N1CCc2c(c(N3CCCc4cc(-c5cnn(C)c5)c(C(F)F)cc43)nn2[C@H]2CC[C@H](CN3CCN(c4ccc(C(=O)N[C@H]5CC[C@H](Oc6ccc(C#N)c(Cl)c6)CC5)nn4)CC3)CC2)C1` [Compound 209, 6-[4-[[4-[5-acetyl-3-[7-(difluoromethyl)-6-(1-methylpyrazol-4-yl)-3,4-dihydro-2H-quinolin-1-yl]-6,7-dihydro-4H-pyrazolo[4,3-c]pyridin-1-yl]cyclohexyl]methyl]piperazin-1-yl]-N-[4-(3-chloro-4-cyano-phenoxy)cyclohexyl]pyridazine-3-carboxamide], the EC50 in assay [1] is less than 1 nM. In assay [2], the IC50 is not above 0.1 nM.

Turning to `CC(=O)N1CCc2c(c(-c3cccc4cc(-c5cnn(CCC6CCN(c7ccc(C(=O)N[C@H]8CC[C@H](Oc9ccc(C#N)c(Cl)c9)CC8)nn7)CC6)c5)ncc34)nn2C)C1` [Compound 8, 6-[4-[2-[4-[8-(5-acetyl-1-methyl-6,7-dihydro-4H-pyrazolo[4,3-c]pyridin-3-yl)-3-isoquinolyl]pyrazol-1-yl]ethyl]-1-piperidyl]-N-[4-(3-chloro-4-cyano-phenoxy)cyclohexyl]pyridazine-3-carboxamide], in assay [1], the EC50 is less than 1 nM. This compound also came in with an IC50 in assay [2] not above 0.1 nM.

Regarding `C[C@@H]1CC(=O)Nc2cc(C3CCN(CC4CCN(c5ccc(C(=O)N[C@H]6CC[C@H](Oc7ccc(C#N)c(Cl)c7)CC6)nn5)CC4)CC3)cc(-c3ccc4c(c3)c(C3CC3)nn4C)c2N1` [Compound 88, N-[4-(3-chloro-4-cyano-phenoxy)cyclohexyl]-6-[4-[[4-[(4R)-6-(3-cyclopropyl-1-methyl-indazol-5-yl)-4-methyl-2-oxo-1,3,4,5-tetrahydro-1,5-benzodiazepin-8-yl]-1-piperidyl]methyl]-1-piperidyl]pyridazine-3-carboxamide], in assay [1], the EC50 was in the range of 1 to 10 nM. The IC50 in assay [2] lay within 0.1 to 1 nM.

In the case of `CC(=O)N1CCc2c(c(N3CCCc4cc(-c5cnn(C)c5)c(C(F)F)cc43)nn2C2CCN(CC3CCN(c4ccc(C(=O)N[C@H]5CC[C@H](Oc6ccc(C#N)c(Cl)c6)CC5)cc4)CC3)CC2)C1` [Compound 139, 4-[4-[[4-[5-acetyl-3-[7-(difluoromethyl)-6-(1-methylpyrazol-4-yl)-3,4-dihydro-2H-quinolin-1-yl]-6,7-dihydro-4H-pyrazolo[4,3-c]pyridin-1-yl]-1-piperidyl]methyl]-1-piperidyl]-N-[4-(3-chloro-4-cyano-phenoxy)cyclohexyl] benzamide], the EC50 in assay [1] is less than 1 nM. In addition, in assay [2], the IC50 is not above 0.1 nM.

With `CC(=O)N1CCc2c(c(-c3cccc4cc(C5CC5)ncc34)nn2C2CCN(CC3CCN(c4ccc(C(=O)N[C@H]5CC[C@H](Oc6ccc(C#N)c(Cl)c6)CC5)nn4)CC3)CC2)C1` [Compound 123, 6-[4-[[4-[5-acetyl-3-(3-cyclopropyl-8-isoquinolyl)-6,7-dihydro-4H-pyrazolo[4,3-c]pyridin-1-yl]-1-piperidyl]methyl]-1-piperidyl]-N-[4-(3-chloro-4-cyano-phenoxy)cyclohexyl]pyridazine-3-carboxamide], the EC50 in assay [1] is less than 1 nM. In assay [2], this compound displayed an IC50 of 0.1 to 1 nM.

As for `CC(=O)N1CCc2c(c(N3CCCc4cc(-c5cnn(C)c5)c(C(F)F)cc43)nn2C2CCN(C3CC4(CCN(c5ccc(C(=O)N[C@H]6CC[C@H](Oc7ccc(C#N)c(Cl)c7)CC6)nn5)CC4)C3)CC2)C1` [Compound 176, 6-[2-[4-[5-acetyl-3-[7-(difluoromethyl)-6-(1-methylpyrazol-4-yl)-3,4-dihydro-2H-quinolin-1-yl]-6,7-dihydro-4H-pyrazolo[4,3-c]pyridin-1-yl]-1-piperidyl]-7-azaspiro[3.5]nonan-7-yl]-N-[4-(3-chloro-4-cyano-phenoxy)cyclohexyl]pyridazine-3-carboxamide], the EC50 in assay [1] is less than 1 nM. In assay [2], the IC50 fell in the range of 0.1 to 1 nM.

Take `COC(=O)N1c2ccc3c(nc(Cc4ccccc4)n3[C@H]3CCC[C@H](CN4CCN(c5ccc(C(=O)N[C@H]6CC[C@H](Oc7ccc(C#N)c(Cl)c7)CC6)nn5)CC4)C3)c2CC[C@@H]1C` [Compound 232, methyl (7S)-2-benzyl-3-[(1S,3S)-3-[[4-[6-[[4-(3-chloro-4-cyano-phenoxy)cyclohexyl]carbamoyl]pyridazin-3-yl]piperazin-1-yl]methyl]cyclohexyl]-7-methyl-8,9-dihydro-7H-imidazo[4,5-f]quinoline-6-carboxylate]: the EC50 in assay [1] was in the range of 1 to 10 nM. In assay [2], this compound gave an IC50 of 1 to 100 nM.
